Values of other authors as cited in US7098376B2, “Transgenic mouse expressing constitutively active hydrocarbon receptor” (InDex Pharmaceuticals AB, priority 2000, dated 2006).

System: mouse models

## Clc1cc2c(cc1Cl)Oc1cc(Cl)c(Cl)cc1O2 [TCDD, 2,3,7,8-tetrachlorodibenzo-p-dioxin]
Mice exposed to TCDD
  dose at which weight loss or impaired weight gain are detected: higher than 3 μg/kg body weight
Single dose of 3 μg TCDD/kg body weight, mouse models
  acute toxic effects (e.g. lethality or the wasting syndrome): no acute toxic effects
